Data on 1 sequence can be found in publication PMC6915728 (Nature Communications, 2019).

Assay [1] relates to E. coli essential gene hypomorphic alleles. Description: Chemical-genetic screen of 279 essential gene hypomorphs on high-density agar plates (AMPs and antibiotics). Format: cell-based, Escherichia coli. As to conditions: folA hypomorphic allele, sub-inhibitory AMP (50% growth inhibition of wild type), 32 °C, 20 h. An excerpt: Chemical-genetic profiling based on gene depletion captures a different aspect of resistance determinants than gene overexpression. […] To investigate the intrinsic AMP resistome, we initiated a chemical-genetic screen with a set of 279 partially depleted essential genes (hypomorphic alleles; see Methods) of E. coli. […] Then, using a well-established high-density agar plate assay[19],[33], we determined their chemical-genetic interaction profiles across the hypomorphic alleles (Supplementary Data 5). […]
Analogous to our E. coli synthetic genetic array approach, our chemical-genetics screening strategy involves robotic pinning of each Kan^R marked single essential gene hypomorph arrayed in 384 colony format on Luria Broth (LB) medium, in quadruplicate, onto the minimal medium containing AMPs under a selected concentration, in two replicates, generating eight replicates in total for each essential gene hypomorph. […] The normalized colony sizes from the AMP plate was subtracted from their corresponding colony screened without AMP to estimate the final hypomorphic-strain fitness score (sensitive or resistant), which is as an average of all eight replicate measurements recorded for each hypomorphic allele. A z-score distribution based p-value was calculated for all interactions and those with p ≤ 0.05 were deemed as significant interactions. […]

Assay [2] deals with bacterial species in which the gene showed activity. As to conditions: Salmonella enterica serovar Typhimurium; ref http://aac.asm.org/content/52/8/2734.full.pdf+html; cited from earlier work.

For the sequence “RRRPRPPYLPRPRPPPFFPPRLPPRIPPGFPPRFPPRFP [PR39, PR-39, cathelicidin, source pig; cluster C4]”, the “Effect of folA depletion on susceptibility” value in assay [1] is listed as “sensitivity”. For the same sequence, in assay [2], the “Gene that modulates bacterial susceptibility to the AMP” value is recorded as “sbmA”.
